Reference: publication PMC8522722, “Safety and Pharmacokinetics in Human Volunteers of Taniborbactam (VNRX-5133), a Novel Intravenous β-Lactamase Inhibitor” (Antimicrobial Agents and Chemotherapy, 2021)

Columns and labels:
[1] = Multiple-ascending-dose (MAD) pharmacokinetics in plasma and urine, healthy adult volunteers; assay type: in vivo, human; settings: for AUCtau / Cmax / CLR,SS / CLSS / Vz / t1/2 / Ae / Fe: mean (%CV); for Tmax: median (range); for t1/2: terminal elimination; for Ae / Fe: urine through the dosing interval (8 h); for AUCtau mean ratio, last dose compared to first dose: day 10 vs day 1
Method: Eligible subjects were randomized to receive either taniborbactam or placebo in a 3:1 ratio within dose cohorts in both the SAD and MAD parts of the study. Each dose cohort in the SAD part of the study enrolled 8 subjects, and each dose cohort in the MAD part of the study enrolled 12 subjects. In the SAD part, subjects received 62.5, 125, 250, 500, 1,000, or 1,500 mg taniborbactam as a 2-h intravenous (i.v.) infusion. In the MAD part, subjects received 2-h intravenous i.v. infusions of 250, 500, or 750 mg taniborbactam q8h over 10 days, ending after a final morning dose on day 10 (total of 28 doses).
Blood samples for assay of taniborbactam in plasma were collected predose and at 1, 2, 2.25, 2.5, 2.75, 3, 4, 6, 8, 12, 26, and 50 h after the start of drug infusion in the SAD part. For the MAD part, blood samples to determine taniborbactam plasma concentrations were collected predose and at 1, 2, 2.25, 2.5, 2.75, 3, 4, 6, and 8 h following the first dose (day 1) and predose and at 1, 2, 2.25, 2.5, 2.75, 3, 4, 6, 10, 14, and 26 h following the last dose (day 10). Urine was collected predose and at intervals of 0 to 4, 4 to 8, 8 to 24, and 24 to 48 h after the start of the infusion in the SAD part for the higher-dose groups (500 to 1,500 mg taniborbactam). For the MAD part, urine was collected through the dosing interval following the last dose using collection intervals of 0 to 4 and 4 to 8 h after the start of the infusion. At the end of each urine collection interval, the volume of each urine collection was recorded and a sample was taken.
Plasma and urine samples were assayed for taniborbactam and screened for possible metabolites. Human dipotassium ethylenediaminetetraacetic acid (K2EDTA) plasma samples were processed using protein precipitation and assayed using ultra-high-performance liquid chromatography with tandem mass spectrometric detection (LC-MS/MS). Both low- and high-range methods were developed and validated for plasma samples, with calibration ranges of 5 to 5,000 ng/ml and 100 to 100,000 ng/ml, respectively. Acidified urine samples were processed using solid-phase extraction and assayed using a validated LC-MS/MS method with a calibration range of 5.0 to 5,000 ng/ml. For both matrices, separation was accomplished using a Waters Acquity HSS T3 column (Milford, MA) at 50°C, and gradient elution using 10 mM ammonium formate with 1% formic acid as mobile phase A and 50:50:1 acetonitrile:methanol:formic acid (vol/vol/vol) as mobile phase B. A triple quadrupole mass spectrometer (API Triple Quad 5500; AB Sciex, Framingham, MA) equipped with a turbo-ion spray set was used for detection in positive ion mode, and quantification was based on multiple reaction monitoring. The internal standard used in the assays was D4-taniborbactam.
Individual subject plasma and urine taniborbactam pharmacokinetic parameters were evaluated using noncompartmental analysis methods (Phoenix WinNonlin, Certara, Princeton, NJ). Single-dose pharmacokinetic parameters were determined in the SAD part, and both single-dose (day 1) and multiple-dose (day 10) pharmacokinetic parameters were determined in the MAD part. Estimated pharmacokinetic parameters included Cmax, time to Cmax (Tmax), AUCtau, AUC0–inf, t1/2, CL, VZ, Ae, Fe, and CLR. The actual sample times were used to calculate the pharmacokinetic parameters. Calculation of λZ was based on best fit of concentrations in the observed terminal elimination phase of a profile, and statistical inclusion of any parameter based on λZ required the goodness of fit statistic (R^2) to be greater than 0.8. Pharmacokinetic data were summarized using descriptive statistics by treatment. Dose proportionality based on Cmax and AUC was determined using linear regression to calculate the slope and 90% CI and observing whether a slope of 1 was included in the confidence interval. The dose proportionality analysis included subject body weight as a covariate in the analysis.

[2] = parameters: species or system human; settings: in vivo
Description: To assess possible metabolites of taniborbactam, plasma and urine samples were pooled across subjects by time points, processed, and analyzed by ultra-high performance liquid chromatography tandem mass spectrometry with a quadrupole time-of-flight mass spectrometer, for acquisition of high-resolution accurate mass data, in positive mode with electrospray ionization, incorporating in-line UV detection with a photodiode array detector (Waters Acquity UPLC). The acquired chromatographic and mass spectral data were compared to analogous data obtained for the corresponding predose and placebo-dose samples to identify metabolites potentially associated with taniborbactam metabolism. Chromatographic peaks observed to be unique to the samples were subject to investigation by mass spectrometric techniques.

NCCN[C@H]1CC[C@H](CC(=O)N[C@H]2Cc3cccc(C(=O)O)c3OB2O)CC1 [Taniborbactam]
AUCtau ([1]; 250 mg q8h, day 1): 34,447 (17.2) h · ng/ml
Cmax ([1]; 250 mg q8h, day 1): 10,544 (18.3) ng/ml
Tmax ([1]; 250 mg q8h, day 1): 2.0 (2.0, 2.1) h
AUCtau ([1]; 250 mg q8h, day 10): 41,563 (15.1) h · ng/ml
CLR,SS ([1]; 250 mg q8h, day 10): 5.2 (17.3) liters/h
CLSS ([1]; 250 mg q8h, day 10): 6.2 (15.9) liters/h
Cmax ([1]; 250 mg q8h, day 10): 11,188 (16.5) ng/ml
Vz ([1]; 250 mg q8h, day 10): 36.0 (28.3) liters
Tmax ([1]; 250 mg q8h, day 10): 2.0 (2.0, 2.1) h
t1/2 ([1]; 250 mg q8h, day 10): 4.1 (29.3) h
Ae ([1]; 250 mg q8h, day 10): 211.0 (11.8) mg
Fe ([1]; 250 mg q8h, day 10): 84.4 (11.8) %
Fe ([1]; 250 mg q8h, day 10, listed as taniborbactam): 84.4%
AUCtau mean ratio, last dose compared to first dose ([1]; 250 mg q8h): 1.21
AUCtau ([1]; 500 mg q8h, day 1): 81,890 (14.7) h · ng/ml
Cmax ([1]; 500 mg q8h, day 1): 25,778 (15.2) ng/ml
Tmax ([1]; 500 mg q8h, day 1): 2.0 (2.0, 2.1) h
AUCtau ([1]; 500 mg q8h, day 10): 89,103 (13.8) h · ng/ml
CLR,SS ([1]; 500 mg q8h, day 10): 5.3 (14.2) liters/h
CLSS ([1]; 500 mg q8h, day 10): 5.7 (12.6) liters/h
Cmax ([1]; 500 mg q8h, day 10): 26,533 (13.0) ng/ml
Vz ([1]; 500 mg q8h, day 10): 39.8 (14.3) liters
Tmax ([1]; 500 mg q8h, day 10): 2.0 (2.0, 2.3) h
t1/2 ([1]; 500 mg q8h, day 10): 4.9 (13.3) h
Ae ([1]; 500 mg q8h, day 10): 462.2 (10.2) mg
Fe ([1]; 500 mg q8h, day 10): 92.4 (10.2) %
Fe ([1]; 500 mg q8h, day 10, listed as taniborbactam): 92.4%
AUCtau mean ratio, last dose compared to first dose ([1]; 500 mg q8h): 1.09
AUCtau ([1]; 750 mg q8h, day 1): 119,140 (18.0) h · ng/ml
Cmax ([1]; 750 mg q8h, day 1): 39,122 (23.7) ng/ml
Tmax ([1]; 750 mg q8h, day 1): 2.0 (2.0, 2.3) h
AUCtau ([1]; 750 mg q8h, day 10): 139,518 (21.6) h · ng/ml
CLR,SS ([1]; 750 mg q8h, day 10): 5.2 (28.6) liters/h
CLSS ([1]; 750 mg q8h, day 10): 5.6 (21.1) liters/h
Cmax ([1]; 750 mg q8h, day 10): 38,778 (18.2) ng/ml
Vz ([1]; 750 mg q8h, day 10): 37.4 (19.9) liters
Tmax ([1]; 750 mg q8h, day 10): 2.0 (2.0, 2.3) h
t1/2 ([1]; 750 mg q8h, day 10): 4.7 (15.4) h
Ae ([1]; 750 mg q8h, day 10): 692.2 (21.7) mg
Fe ([1]; 750 mg q8h, day 10): 92.3 (21.7) %
Fe ([1]; 750 mg q8h, day 10, listed as taniborbactam): 92.3%
AUCtau mean ratio, last dose compared to first dose ([1]; 750 mg q8h): 1.17
administered dose recovered in urine as intact drug ([1]; at steady state): approximately 90%
biotransformation products with a detectable UV response in pooled plasma samples [2]: no significant taniborbactam biotransformation products
